Test results reported in US4160015A, “2,4,6-Triiodobenzoic acid derivatives and their use as x-ray contrast agents” (priority 1978, dated 1979).
Where a name gives a salt, the structure may show the parent alone.

Assays:
water solubility = assay type: physicochemical; conditions: for water solubility: 25° C.
[1] = crystal formation on standing (sodium salt, five months at 5°-10° C.); assay type: physicochemical; conditions: standing for over five months at 5°-10° C.
[2] = Acute Intravenous Toxicity Studies in Mice; conditions: mouse, in vivo, lateral tail vein, solutions containing 28.27% iodine, 1 ml./min., seven day observation, read-out: LD50 of N-Methylglucamine Salt, I.V. (Mice)
Procedure: (§1) Toxicity evaluations were carried out on solutions of the N-methylglucaminesalt of 5-gluconamido-2,4,6-triiodo-N-methylisophthalamic acid by three different techniques and on solutions of the N-methylglucamine salt of 3-acetamido-2,4,6-triiodo-5-trishydroxymethylacetamido-benzoic acid by two different techniques. The techniques utilized are outlined below.
Swiss Albino mice (Charles River) were dosed in the lateral tail vein with solutions of the iodinated compound containing 28.27% of iodine, injected at the rate of 1 ml./min. […] The LD50 values were calculated by the method of Litchfield and Wilcoxon (J. of Pharmac. and Exptl. Therap. 96:99-113, 1949).

[3] = Intracerebral Toxicity in Mice; conditions: mouse, in vivo, fixed volumes of various concentrations, seven day observation, read-out: LD50 of N-Methylglucamine Salt, Intracerebral (Mice)
Procedure: as §1
Swiss Albino mice (Charles River) were used. Fixed volumes of solutions of various concentrations of the iodinated compounds were injected intracerebrally via a 27 gauge needle, (1/4 inch length) according to the method of Haley, et al. (Br. J. of Pharmac. 12:12-15, 1957). The animals were observed immediately after injections and daily throughout a seven day observation period. The LD50 values were calculated by the method of Litchfield and Wilcoxon (J. of Pharmac. and Exptl. Therap. 96:99-113, 1949).

[4] = Intracisternal Toxicity in Rats; set-up: species or system Sprague Dawley (Carworth) rats; conditions: rat, in vivo, two day observation, read-out: LD50 of N-Methylglucamine Salt, Intracisternal (Rats)
Procedure: as §1
Sprague Dawley (Carworth) rats were used. The method used is a variation of the procedure outlined by Melartin et al. (Invest. Rad. 5:13-21, 1970). After dosing, the animals were housed individually, and observed for immediate reactions and periodically for a two day observation period. The LD50 values were calculated according to the method of Litchfield and Wilcoxon, (J. of Pharmac. and Exptl. Therap. 96:99-115, 1949).

SMILES | water solubility (water solubility) | LD50 at 168 h [2] | LD50 at 168 h [3] | also measured
CNC(=O)c1c(I)c(NC(=O)[C@H](O)[C@@H](O)[C@H](O)[C@H](O)CO)c(I)c(C(=O)O)c1I [Example 2, Sodium 5-Gluconamido-2,4,6-triiodo-N-methylisophthalamate] |  |  |  | solubility (water solubility; water, read-out: solubility of the sodium salt): > 1010 mg/mL; crystals formed after standing [1]: no crystals formed
CC(=O)Nc1c(I)c(NC(=O)C(CO)(CO)CO)c(I)c(C(=O)O)c1I [Example 3, 3-Acetamido-2,4,6-triiodo-5-(trishydroxymethyl)acetamido-benzoic Acid] | 2-2.5 % w/v |  |  | 
CC(=O)Nc1c(I)c(NC(=O)C(CO)(CO)CO)c(I)c(C(=O)O)c1I [Example 4, sodium salt of 3-acetamido-2,4,6-triiodo-5-trishydroxymethylacetamido-benzoic acid] | 63.5-66 % w/v |  |  | 
CC(=O)Nc1c(I)c(NC(=O)C(CO)(CO)CO)c(I)c(C(=O)O)c1I [N-methylglucamine salt of 3-acetamido-2,4,6-triiodo-5-trishydroxymethylacetamido-benzoic acid] |  | 6000 mg/kg | 150 mg/kg | 
CNC(=O)c1c(I)c(NC(=O)[C@H](O)[C@@H](O)[C@H](O)[C@H](O)CO)c(I)c(C(=O)O)c1I [N-methylglucaminesalt of 5-gluconamido-2,4,6-triiodo-N-methylisophthalamic acid] |  | 5200 mg/kg | 620 mg/kg | LD50 at 48 h [4]: 355 mg/kg
